Results: BindingDB's records for patent US20240376113 (Volastra Therapeutics, 2024)
pKi: −log10 of the molar value.

Molecular target: T1, Ectonucleotide pyrophosphatase/phosphodiesterase family member 1 (Homo sapiens, UniProt P22413)
T1 sequence (P22413 whole entry): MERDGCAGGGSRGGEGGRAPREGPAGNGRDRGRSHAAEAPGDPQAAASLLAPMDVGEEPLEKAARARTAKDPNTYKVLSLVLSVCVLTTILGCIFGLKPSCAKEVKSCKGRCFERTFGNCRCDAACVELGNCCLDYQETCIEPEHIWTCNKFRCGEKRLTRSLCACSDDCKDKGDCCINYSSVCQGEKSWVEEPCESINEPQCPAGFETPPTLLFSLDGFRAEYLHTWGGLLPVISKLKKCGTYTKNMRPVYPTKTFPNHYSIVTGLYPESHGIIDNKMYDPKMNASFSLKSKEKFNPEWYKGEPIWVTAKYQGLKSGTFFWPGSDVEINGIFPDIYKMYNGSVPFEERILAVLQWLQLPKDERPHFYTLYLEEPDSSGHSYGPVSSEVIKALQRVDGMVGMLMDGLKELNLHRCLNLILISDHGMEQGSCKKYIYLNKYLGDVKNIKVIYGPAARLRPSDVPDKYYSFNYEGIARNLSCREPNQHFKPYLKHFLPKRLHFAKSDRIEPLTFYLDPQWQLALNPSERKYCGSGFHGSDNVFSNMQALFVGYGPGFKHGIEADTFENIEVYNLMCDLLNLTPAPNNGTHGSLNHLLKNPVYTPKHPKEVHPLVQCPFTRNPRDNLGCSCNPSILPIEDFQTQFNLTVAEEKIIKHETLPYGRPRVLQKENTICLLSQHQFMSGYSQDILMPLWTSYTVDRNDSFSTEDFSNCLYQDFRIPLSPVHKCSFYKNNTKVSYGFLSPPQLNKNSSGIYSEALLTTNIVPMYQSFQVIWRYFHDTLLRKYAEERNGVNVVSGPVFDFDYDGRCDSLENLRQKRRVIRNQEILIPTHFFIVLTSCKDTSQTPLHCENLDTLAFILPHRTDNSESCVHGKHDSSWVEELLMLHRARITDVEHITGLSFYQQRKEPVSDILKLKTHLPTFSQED
Assay: Inhibition of ENPP1 hydrolysis of 2′,3′-cGAMP (Assay 1)
Method: Test compounds were plated in a 3× dilution scheme in a 384 well plate.

| Structure (SMILES) | pKi |
| --- | --- |
| Cc1c(Cc2ccc(S(C)(=N)=O)cc2)c(N(C)C)nc2ncnn12 (configuration not stated) [US20240376113, Compound 86] | 9.86 |
| Cc1c(Cc2ccc(S(C)(=N)=O)cc2)c(N)cc2ncnn12 (configuration not stated) [US20240376113, Compound 89] | 7.55 |
